# Laboratory results reported in PubChem BioAssay AID2060510 (Molecular Pharmacology Branch, DTP, NCI, 2025).
# System: 439559-082-T-J2-PDC spheroids viability
# Assay: Anticancer human tumor 439559-082-T-J2-PDC patient-derived colon adenocarcinoma cell line growth inhibition [GQUAD]
# Conditions: for IC50: curve of first compound; for viability, T/C: stronger effect = lower value
# Source text: DNA G-quadruplex Stabilizer Agents in Combinations in Complex Spheroids
# A high-throughput screen of multi-cell type tumor spheroids was designed to identify active combinations of DNA G-quadruplex stabilizer agents and targeted small molecules. Complex spheroids include a stromal component modeled by human endothelial cells (HUVEC) and fibroblasts modeled by human mesenchymal stem cells (MSCs). The concentration ranges selected for each drug and investigational agent were based upon clinically achievable concentrations if the clinical Cmax of the agent was known.
# Compounds. The drugs and investigational agents: pidnarulex (CX-5461; NSC782164), APTO-253 (NSC789042), BRACO-19 (NSC847499), peposertib (NSC802822), ceralasertib (NSC780249), elimusertib (NSC800525), camonsertib (NSC841442), AZD-1390 (NSC803789), olaparib (NSC753686), talazoparib (NSC767125), ART-558 (NSC835418), sotorasib (NSC818433), MRTX-1133 (NSC836407), SN-38 (NSC673596), topotecan (NSC609699), etoposide (NSC141540), doxorubicin (NSC123127), gemcitabine (NSC613327), 5-fluorouracil (NSC19893), paclitaxel (NSC125973), vemurafenib (NSC761431), panobinostat (NSC761190), R-306465 (JNJ-16241199; NSC773264), adavosertib (NSC754352), TP-3654 (NSC805149), carboplatin (NSC241240), KSQ-4279 (NSC840948), and staurosporine (NSC755774) were obtained from the National Cancer Institute (NCI) Developmental Therapeutics Program Chemical Repository (34). The FDA-approved anticancer drug set is available from the NCI Developmental Therapeutics Program. […] The stock solutions were prepared in dimethyl sulfoxide (DMSO, Sigma-Aldrich, St. Louis, MO, cat. D2650) at 800-fold the tested concentration and stored at -70 degrees C prior to their use. All drugs and investigational agents were tested over a range starting from a high concentration at or near the clinical Cmax and decreasing in half-log increments. If the clinical Cmax for an agent had not been determined, the highest concentration tested was 10 microM.
# 2.3 Cell Culture. All cells were maintained in an incubator at 37 degrees C and 5% CO2 with 95% humidity. The PDC lines were cultured according to standard operating procedures established by the NCI PDMR. All PDCs were thawed and cultured in Matrigel-coated flasks prepared with a working solution of 1X Ham's F-12 nutrient mix, without supplementation (Invitrogen, cat. 11765054), 100 U/mL penicillin-streptomycin (Invitrogen, cat. 15140122), and 2.5% Matrigel (Corning Inc., cat. 354248) for the first three passages. The 857933-349-R-J2-PDC line was cultured in 6C/Colon 1B media, which includes advanced DMEM/F-12 (Thermo Fisher Scientific, cat. 12634028), 10 mM HEPES (Thermo Fisher Scientific, cat. 15630080), 1X GlutaMAX supplement (Thermo Fisher Scientific, cat. 35050061), 0.1 mg/mL primocin (InvivoGen, cat. ant-pm-2), 10% defined fetal bovine serum, heat inactivated (HyClone Laboratories Inc., cat. SH30070.03HI), 50% L-WRN conditioned media (ATCC, cat. CRL-3276), 1.25 mM N-Acetyl-L-cysteine (Sigma-Aldrich, cat. A9165), 10 mM nicotinamide (Sigma-Aldrich, cat. N0636), 1X B-27 supplement (Thermo Fisher Scientific, cat. 17504044), 1X N-2 supplement (Thermo Fisher Scientific, cat. 17502048), 10 microM Y-27632 dihydrochloride (Tocris Bioscience, cat. 1254), and 50 ng/mL human EGF recombinant protein (Thermo Fisher Scientific, cat. PHG0311). The 485176-168-R4-J1-PDC line was cultured in Panc media, which includes all 6C/Colon 1B media components plus 100 ng/mL human FGF-10 (Thermo Fisher Scientific, cat. 100-26), 500 nM SB-431542 (Selleckchem, cat. S1067), and gastrin (Tocris, cat. 3006).
# […]
# [1] = second compound 0.0316 µM, first compound 0.0316 µM
# [2] = second compound 0.0316 µM, first compound 0.316 µM
# [3] = second compound 0.1 µM, first compound 0.0316 µM
# [4] = second compound 0.1 µM, first compound 0.316 µM
# [5] = second compound 0.316 µM, first compound 0.0316 µM
# [6] = second compound 0.316 µM, first compound 0.316 µM
# [7] = second compound 1 µM, first compound 0.0316 µM
# [8] = second compound 1 µM, first compound 0.316 µM
# [9] = second compound 3.16 µM, first compound 0.0316 µM
# [10] = second compound 3.16 µM, first compound 0.316 µM
# [11] = second compound 10 µM, first compound 0.0316 µM
# [12] = second compound 10 µM, first compound 0.316 µM
# 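Further: spheroids exposed to the agents for 7 days before readout.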
# 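Wherever viability, T/C is given: percent of luminescence signal in DMSO vehicle wells taken as 100% viability.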
structure (smiles),measurement,setting,value
Cn1ncnc1[C@H]1c2n[nH]c(=O)c3cc(F)cc(c23)N[C@@H]1c1ccc(F)cc1 + CN(C)c1ccc(Nc2c3ccc(NC(=O)CCN4CCCC4)cc3nc3cc(NC(=O)CCN4CCCC4)ccc23)cc1,IC50,second compound 0.0316 µM,> 0.316 µM
same,IC50,second compound 0.1 µM,> 0.316 µM
same,IC50,second compound 0.316 µM,> 0.316 µM
same,IC50,second compound 1 µM,> 0.316 µM
same,IC50,second compound 3.16 µM,> 0.316 µM
same,IC50,second compound 10 µM,> 0.316 µM
same,"viability, T/C","second compound 0.0316 µM, first compound 0.000999 µM",94.6%
same,"viability, T/C","second compound 0.0316 µM, first compound 0.00316 µM",97%
same,"viability, T/C","second compound 0.0316 µM, first compound 0.00999 µM",104%
same,"viability, T/C",[1],96.3%
same,"viability, T/C","second compound 0.0316 µM, first compound 0.0999 µM",95.9%
same,"viability, T/C",[2],94.4%
same,"viability, T/C","second compound 0.1 µM, first compound 0.000999 µM",99.6%
same,"viability, T/C","second compound 0.1 µM, first compound 0.00316 µM",98.6%
same,"viability, T/C","second compound 0.1 µM, first compound 0.00999 µM",90.7%
same,"viability, T/C",[3],108%
same,"viability, T/C","second compound 0.1 µM, first compound 0.0999 µM",94.4%
same,"viability, T/C",[4],85.3%
same,"viability, T/C","second compound 0.316 µM, first compound 0.000999 µM",99.6%
same,"viability, T/C","second compound 0.316 µM, first compound 0.00316 µM",106%
same,"viability, T/C","second compound 0.316 µM, first compound 0.00999 µM",97%
same,"viability, T/C",[5],94.4%
same,"viability, T/C","second compound 0.316 µM, first compound 0.0999 µM",93.8%
same,"viability, T/C",[6],82.5%
same,"viability, T/C","second compound 1 µM, first compound 0.000999 µM",96.8%
same,"viability, T/C","second compound 1 µM, first compound 0.00316 µM",91.7%
same,"viability, T/C","second compound 1 µM, first compound 0.00999 µM",96%
same,"viability, T/C",[7],111%
same,"viability, T/C","second compound 1 µM, first compound 0.0999 µM",96.8%
same,"viability, T/C",[8],92.5%
same,"viability, T/C","second compound 3.16 µM, first compound 0.000999 µM",101%
same,"viability, T/C","second compound 3.16 µM, first compound 0.00316 µM",102%
same,"viability, T/C","second compound 3.16 µM, first compound 0.00999 µM",89.6%
same,"viability, T/C",[9],99.2%
same,"viability, T/C","second compound 3.16 µM, first compound 0.0999 µM",98.1%
same,"viability, T/C",[10],85.5%
same,"viability, T/C","second compound 10 µM, first compound 0.000999 µM",104%
same,"viability, T/C","second compound 10 µM, first compound 0.00316 µM",77.2%
same,"viability, T/C","second compound 10 µM, first compound 0.00999 µM",91.5%
same,"viability, T/C",[11],85.8%
same,"viability, T/C","second compound 10 µM, first compound 0.0999 µM",99.6%
same,"viability, T/C",[12],85%
CC1COCCN1c1cc(C2(S(C)(=N)=O)CC2)nc(-c2ccnc3[nH]ccc23)n1 (centres undefined) + Cc1[nH]c2ccc(F)cc2c1-c1nc2c3cccnc3c3ncccc3c2[nH]1,IC50,second compound 0.0316 µM,> 10 µM
same,IC50,second compound 0.1 µM,> 10 µM
same,IC50,second compound 0.316 µM,> 10 µM
same,IC50,second compound 1 µM,> 10 µM
same,IC50,second compound 3.16 µM,> 10 µM
same,IC50,second compound 10 µM,> 10 µM
same,"viability, T/C",[1],100%
same,"viability, T/C","second compound 0.0316 µM, first compound 0.1 µM",92.5%
same,"viability, T/C",[2],103%
same,"viability, T/C","second compound 0.0316 µM, first compound 1 µM",106%
same,"viability, T/C","second compound 0.0316 µM, first compound 3.16 µM",96.7%
same,"viability, T/C","second compound 0.0316 µM, first compound 10 µM",76.8%
same,"viability, T/C",[3],109%
same,"viability, T/C","second compound 0.1 µM, first compound 0.1 µM",104%
same,"viability, T/C",[4],90.9%
same,"viability, T/C","second compound 0.1 µM, first compound 1 µM",102%
same,"viability, T/C","second compound 0.1 µM, first compound 3.16 µM",93.9%
same,"viability, T/C","second compound 0.1 µM, first compound 10 µM",75.8%
same,"viability, T/C",[5],88.1%
same,"viability, T/C","second compound 0.316 µM, first compound 0.1 µM",105%
same,"viability, T/C",[6],99.6%
same,"viability, T/C","second compound 0.316 µM, first compound 1 µM",104%
same,"viability, T/C","second compound 0.316 µM, first compound 3.16 µM",98.5%
same,"viability, T/C","second compound 0.316 µM, first compound 10 µM",71.3%
same,"viability, T/C",[7],99.9%
same,"viability, T/C","second compound 1 µM, first compound 0.1 µM",86.8%
same,"viability, T/C",[8],100%
same,"viability, T/C","second compound 1 µM, first compound 1 µM",90.5%
same,"viability, T/C","second compound 1 µM, first compound 3.16 µM",91.8%
same,"viability, T/C","second compound 1 µM, first compound 10 µM",68.5%
same,"viability, T/C",[9],87.5%
same,"viability, T/C","second compound 3.16 µM, first compound 0.1 µM",94.2%
same,"viability, T/C",[10],80.8%
same,"viability, T/C","second compound 3.16 µM, first compound 1 µM",77.4%
same,"viability, T/C","second compound 3.16 µM, first compound 3.16 µM",83.5%
same,"viability, T/C","second compound 3.16 µM, first compound 10 µM",63.1%
same,"viability, T/C",[11],88%
same,"viability, T/C","second compound 10 µM, first compound 0.1 µM",87.8%
same,"viability, T/C",[12],80.8%
same,"viability, T/C","second compound 10 µM, first compound 1 µM",74.4%
same,"viability, T/C","second compound 10 µM, first compound 3.16 µM",80.6%
same,"viability, T/C","second compound 10 µM, first compound 10 µM",64.3%
